How the values were obtained:
[1] = Compound was evaluated for its affinity towards avidin
[2] = compound was evaluated for its affinity towards streptavidin.

With `O=C(O)CCCC[C@@H]1SC[C@@H]2NC(=O)N[C@@H]21` the Ka [1] was 1e+16 M⁻¹ and the Ka [2] was 1e+16 M⁻¹.

— ChEMBL document CHEMBL1152015, “One-step synthesis of radioiodinated biotin derivatives” (Bioorg Med Chem Lett, 1996)
